Data: US20210196747A1, “METABOLISM IMPROVING AGENT” (University of the Ryukyus, priority 2018, published 2021)

Tested on: model rat of the present invention (13LK freely fed)
Assay: Alkalizing agent (citrate or sodium bicarbonate) given to the 13LK-fed model rat: urine pH and urinary corticosterone excretion (Example 3)
Assay type: in vivo
Settings: 13LK model rat, 1 week, n = 8; for Urine pH: 13LK control 5.7 ± 0.2; for Urine corticosterone: 13LK control 486 ± 115
Method: Citrate or sodium bicarbonate was administered as an alkalizing agent using the model rat of the present invention prepared in Example 1 (13LK was freely fed as a feed for one week), and the results of confirming urine pH and urinary glucocorticoid (corticosterone) excretion are shown in Table 3. Urine pH increased and corticosterone excretion decreased in both the citrate administration group and the sodium bicarbonate administration group as compared to the control group.

With `O=C([O-])O.[Na+]` [NaHCO3, sodium bicarbonate] the “Urine pH” value was 6.8 ± 0.6, the “Urine pH” value (listed as sodium bicarbonate) was “increased” and the Urine corticosterone was 309 ± 116 ng/day. The Urine corticosterone (listed as sodium bicarbonate) was “decreased”.
